What was measured:
[1] = tested on: HeLa cells; test: MTT cytotoxic assay, HeLa; assay type: cell-based; settings: Homo sapiens, 72 h
Description: (§1) Human breast cancer cell line (MDA-MB-231), cervical carcinoma cell line (HeLa), the liver cancer cell line (SMMC-7721) and normal hepatocyte cell line (QSG-7701) were maintained in Dulbecco Modified Eagle Medium (DMEM) containing 4.0 mM L-Glutamine and 4500 mg/L Glucose supplemented with 10% (v/v) foetal bovine serum (FBS) and 100 U/mL penicillin/streptomycin at 37 °C in humidified atmosphere of 5% CO2 and 95% air.
(§2) Exponentially growing MDA-MB-231, Hela and SMMC-7721 cell lines were seeded into 96-well plate for 100 μL and treated with different concentrations of the synthetic compounds for 72 h, and then 10 μL of MTT (10 mg/mL) was added and incubation for 3 ∼ 4 h at 37 °C. The generated purple formazan crystals from viable can be dissolved by adding 100 μL DMSO. The plates were swirled gently for 5 min and quantified by measuring the OD of the plates at the wavelength of 540 nm. Each concentration was repeated in three wells and the same experimental condition was provided for all compounds. The results were expressed as IC50 values with standard deviations, which was defined as the concentration at which 50% survival of cells was discerned. Etoposide was co-assayed as positive control.
(§3) The in vitro cytotoxic activity of derivatives 3a–d, 4a–h, 5a–h, and 6a–h were evaluated by MTT assay against human breast cancer cell line (MDA-MB-231), cervical carcinoma cell line (HeLa), hepatocarcinoma cell line (SMMC-7721) and human normal hepatocyte cell line (QSG-7701). The anticancer drug etoposide was co-assayed as the positive control. All tested compounds were dissolved in DMSO and the stock solutions were diluted by DMEM medium before treatment of the cultured cells.

[2] = tested on: QSG-7701 cells; test: MTT cytotoxic assay, normal hepatocyte QSG-7701; assay type: cell-based, human; settings: for IC50: Homo sapiens, QSG7701, MTT, normal hepatocyte cell line; for Selectivity: IC50 (QSG-7701)/IC50 (HeLa)
Description: as §1, §2, §3

[3] = tested on: SMMC-7721 cells; test: MTT cytotoxic assay, SMMC-7721; assay type: cell-based; settings: Homo sapiens, 72 h
Description: as §1, §2, §3

[4] = tested on: MDA-MB-231 cells; test: MTT cytotoxic assay, MDA-MB-231; assay type: cell-based, human
Description: as §1, §2, §3

[5] = molecular target: T1, MEK1 (Homo sapiens, UniProt Q02750); test: In vitro MEK1 kinase assay (ADP-Glo); assay type: biochemical; settings: recombinant GST-MEK1, GST-ERK2 (inactive) substrate, 10 μM ATP
T1 construct: purchased Carna Biosciences, Kobe, Japan
Description: An in vitro kinase assay of MEK1 was performed using ADP-Glo kinase assay (Promega, Madison, WI, USA) according to the manufacturer’s protocol. […] Reactions were stopped by adding 5 μL of ADP-Glo reagent to each well. After incubating at 22 °C for 40 min, 10 μL of the kinase detection reagent was added and the plates were incubated for another 30 min at 22 °C in the dark. The reaction mixture was analysed by EnSpire (PerkinElmer, Waltham, MA, USA).
The Raf/MEK/ERK pathway is the downstream of Ras activation, and the abnormal expression or phosphorylation of the associated proteins is essential for cancer cell proliferation. In this pathway, MEK kinase is an important anticancer target because of its key roles in regulating the cancer cell apoptosis and oncogenic transformation[51]^,[52]. Among MEK proteins, MEK1 and MEK2 are known as substrate-specific kinases which phosphorylate their downstream kinase ERK1/2.

T1 sequence (Q02750 whole entry): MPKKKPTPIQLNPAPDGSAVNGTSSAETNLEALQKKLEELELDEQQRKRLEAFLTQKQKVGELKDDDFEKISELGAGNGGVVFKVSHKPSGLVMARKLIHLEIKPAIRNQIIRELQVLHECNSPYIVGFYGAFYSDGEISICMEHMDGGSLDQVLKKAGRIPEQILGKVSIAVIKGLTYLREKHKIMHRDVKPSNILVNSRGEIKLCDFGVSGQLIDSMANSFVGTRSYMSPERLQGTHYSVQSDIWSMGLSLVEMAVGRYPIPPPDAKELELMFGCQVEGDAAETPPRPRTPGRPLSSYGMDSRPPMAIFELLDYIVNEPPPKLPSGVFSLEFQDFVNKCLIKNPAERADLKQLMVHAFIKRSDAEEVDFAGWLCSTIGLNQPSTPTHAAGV

| IC50 [5] [µM] | SMILES | IC50 [1] [µM] | IC50 [2] [µM] | Selectivity [2] | IC50 [3] [µM] | IC50 ([4]; Homo sapiens, MDA-MB-231, 72 h) [µM] | IC50 ([4]; 72 h) [µM] |
| --- | --- | --- | --- | --- | --- | --- | --- |
| > 50 | Cc1nnc([C@]23CC[C@@H](C)[C@H](C)C2C2=CCC4[C@@]5(C)Cc6cc7cc(Cl)ccc7nc6C(C)(C)C5CC[C@@]4(C)[C@]2(C)CC3)s1 (stereo partly drawn) [Compound 6d] | 10.9 ± 1.07 | > 50 | 5.7 | > 50 | 15.8 ± 1.32 | – |
| 10.9 | COc1ccc2nc3c(cc2c1)CC1(C)C(CCC2(C)C1CC=C1C4C(C)C(C)CCC4(C(=O)NNC(C)=O)CCC12C)C3(C)C (stereo not drawn) [Compound 4b, N-[5′-methoxy-ursa-12-en-(2,3)-quinoline-28-oyl]-acetohydrazide] | 0.83 ± 0.09 | 45.2 ± 2.82 | 54.5 | 17.65 ± 0.11 | 1.42 ± 0.14 | – |
| > 50 | Cc1nnc([C@]23CC[C@@H](C)[C@H](C)C2C2=CCC4[C@@]5(C)Cc6cc7ccccc7nc6C(C)(C)C5CC[C@@]4(C)[C@]2(C)CC3)o1 (stereo partly drawn) [Compound 5a, N-2-[ursa-12-en-(2,3)-quinoline-28-oyl]-5-methyl-1,3,4-oxadiazole] | 19.4 ± 0.7 | > 50 | 4.3 | > 50 | < 10 | 5.32 ± 0.13 |
| – | CCCCC(=O)NNC(=O)[C@]12CC[C@@H](C)[C@H](C)C1C1=CCC3[C@@]4(C)Cc5cc6cc(Cl)ccc6nc5C(C)(C)C4CC[C@@]3(C)[C@]1(C)CC2 (stereo partly drawn) [Compound 4h, N-[5′-chloro-ursa-12-en-(2,3)-quinoline-28-oyl]-pentanehydrazide] | 46 ± 0.91 | – | – | > 50 | > 50 | – |
| – | Cc1nnc([C@]23CC[C@@H](C)[C@H](C)C2C2=CCC4[C@@]5(C)Cc6cc7cc(F)ccc7nc6C(C)(C)C5CC[C@@]4(C)[C@]2(C)CC3)s1 (stereo partly drawn) [Compound 6c] | > 50 | > 50 | 2.8 | > 50 | 31.6 ± 2.7 | – |
| – | C[C@@H]1CC[C@]2(C(=O)O)CC[C@]3(C)C(=CCC4[C@@]5(C)CCC(=O)C(C)(C)C5CC[C@]43C)C2[C@H]1C (stereo partly drawn) [Compound 2, 3-oxo-ursolic acid] | > 50 | – | – | > 50 | > 50 | – |
| – | Cc1nnc([C@]23CC[C@@H](C)[C@H](C)C2C2=CCC4[C@@]5(C)Cc6cc7ccccc7nc6C(C)(C)C5CC[C@@]4(C)[C@]2(C)CC3)s1 (stereo partly drawn) [Compound 6a] | 27.3 ± 1.91 | > 50 | 4.8 | > 50 | 18.8 ± 1.38 | – |
| – | CCCCC(=O)NNC(=O)[C@]12CC[C@@H](C)[C@H](C)C1C1=CCC3[C@@]4(C)Cc5cc6cc(OC)ccc6nc5C(C)(C)C4CC[C@@]3(C)[C@]1(C)CC2 (stereo partly drawn) [Compound 4f, N-[5′-methoxy-ursa-12-en-(2,3)-quinoline-28-oyl]-pentanehydrazide] | > 50 | – | – | > 50 | > 50 | – |
| – | CCCCc1nnc([C@]23CC[C@@H](C)[C@H](C)C2C2=CCC4[C@@]5(C)Cc6cc7cc(Cl)ccc7nc6C(C)(C)C5CC[C@@]4(C)[C@]2(C)CC3)o1 (stereo partly drawn) [Compound 5h, N-[5′-chloro-ursa-12-en-(2,3)-quinoline-28-oyl]-5-butyl-1,3,4-oxadiazole] | > 50 | – | – | > 50 | > 50 | – |
| – | CCCCc1nnc([C@]23CC[C@@H](C)[C@H](C)C2C2=CCC4[C@@]5(C)Cc6cc7cc(OC)ccc7nc6C(C)(C)C5CC[C@@]4(C)[C@]2(C)CC3)o1 (stereo partly drawn) [Compound 5f, N-[5′-methoxy-ursa-12-en-(2,3)-quinoline-28-oyl]-5-butyl-1,3,4-oxadiazole] | 30.9 ± 1.14 | – | – | > 50 | > 50 | – |
| > 50 | Cc1nnc([C@]23CC[C@@H](C)[C@H](C)C2C2=CCC4[C@@]5(C)Cc6cc7cc(Cl)ccc7nc6C(C)(C)C5CC[C@@]4(C)[C@]2(C)CC3)o1 (stereo partly drawn) [Compound 5d, N-[5′-chloro-ursa-12-en-(2,3)-quinoline-28-oyl]-5-methyl-1,3,4-oxadiazole] | – | > 50 | 20.1 | > 50 | 11 ± 0.98 | – |
| – | CCCCc1nnc([C@]23CC[C@@H](C)[C@H](C)C2C2=CCC4[C@@]5(C)Cc6cc7ccccc7nc6C(C)(C)C5CC[C@@]4(C)[C@]2(C)CC3)o1 (stereo partly drawn) [Compound 5e, N-2-[ursa-12-en-(2,3)-quinoline-28-oyl]-5-butyl-1,3,4-oxadiazole] | > 50 | – | – | > 50 | > 50 | – |
| – | C[C@H]1[C@H](C)CC[C@]2(C(=O)O)CC[C@]3(C)C(=CC[C@@H]4[C@@]5(C)CC[C@H](O)C(C)(C)[C@@H]5CC[C@]43C)[C@H]12 [Compound 1, Ursolic acid] | > 50 | – | – | > 50 | > 50 | – |
| – | CCCCc1nnc([C@]23CC[C@@H](C)[C@H](C)C2C2=CCC4[C@@]5(C)Cc6cc7cc(F)ccc7nc6C(C)(C)C5CC[C@@]4(C)[C@]2(C)CC3)o1 (stereo partly drawn) [Compound 5g, N-[5′-fluoro-ursa-12-en-(2,3)-quinoline-28-oyl]-5-butyl-1,3,4-oxadiazole] | > 50 | – | – | > 50 | > 50 | – |
| – | CCCCC(=O)NNC(=O)[C@]12CC[C@@H](C)[C@H](C)C1C1=CCC3[C@@]4(C)Cc5cc6cc(F)ccc6nc5C(C)(C)C4CC[C@@]3(C)[C@]1(C)CC2 (stereo partly drawn) [Compound 4g, N-[5′-fluoro-ursa-12-en-(2,3)-quinoline-28-oyl]-pentanehydrazide] | > 50 | – | – | > 50 | > 50 | – |
| – | COc1cc([C@@H]2c3cc4c(cc3[C@@H](O[C@@H]3O[C@@H]5CO[C@@H](C)O[C@H]5[C@H](O)[C@H]3O)[C@H]3COC(=O)[C@H]23)OCO4)cc(OC)c1O [Etoposide, reference compound] | 2.98 ± 0.42 | 28.8 ± 3.28 | 9.6 | 3.48 ± 0.35 | 5.26 ± 1.21 | – |
| – | CCCCC(=O)NNC(=O)[C@]12CC[C@@H](C)[C@H](C)C1C1=CCC3[C@@]4(C)Cc5cc6ccccc6nc5C(C)(C)C4CC[C@@]3(C)[C@]1(C)CC2 (stereo partly drawn) [Compound 4e, N-[ursa-12-en-(2,3)-quinoline-28-oyl]-pentanehydrazide] | > 50 | – | – | > 50 | > 50 | – |
| – | COc1ccc2nc3c(cc2c1)CC1(C)C(CCC2(C)C1CC=C1C4C(C)C(C)CCC4(c4nnc(C)s4)CCC12C)C3(C)C (stereo not drawn) [Compound 6b] | 12.8 ± 1.32 | > 50 | 8.5 | > 50 | 15.7 ± 2.01 | – |
| – | CCCCc1nnc([C@]23CC[C@@H](C)[C@H](C)C2C2=CCC4[C@@]5(C)Cc6cc7cc(Cl)ccc7nc6C(C)(C)C5CC[C@@]4(C)[C@]2(C)CC3)s1 (stereo partly drawn) [Compound 6h, N-2-[5′-chloro-ursa-12-en-(2,3)-quinoline-28-oyl]-5-butyl-1,3,4-thiadiazole] | > 50 | – | – | > 50 | > 50 | – |
| – | CCCCc1nnc([C@]23CC[C@@H](C)[C@H](C)C2C2=CCC4[C@@]5(C)Cc6cc7cc(OC)ccc7nc6C(C)(C)C5CC[C@@]4(C)[C@]2(C)CC3)s1 (stereo partly drawn) [Compound 6f, N-2-[5′-methoxy-ursa-12-en-(2,3)-quinoline-28-oyl]-5-butyl-1,3,4-thiadiazole] | > 50 | – | – | > 50 | > 50 | – |
| – | COc1ccc2nc3c(cc2c1)CC1(C)C(CCC2(C)C1CC=C1C4C(C)C(C)CCC4(c4nnc(C)o4)CCC12C)C3(C)C (stereo not drawn) [Compound 5b, N-[5′-methoxy-ursa-12-en-(2,3)-quinoline-28-oyl]-5-methyl-1,3,4-oxadiazole] | 16.8 ± 0.34 | > 50 | 5.6 | > 50 | 12.25 ± 0.12 | – |
| – | Cc1nnc([C@]23CC[C@@H](C)[C@H](C)C2C2=CCC4[C@@]5(C)Cc6cc7cc(F)ccc7nc6C(C)(C)C5CC[C@@]4(C)[C@]2(C)CC3)o1 (stereo partly drawn) [Compound 5c, N-[5′-fluoro-ursa-12-en-(2,3)-quinoline-28-oyl]-5-methyl-1,3,4-oxadiazole] | 33.8 ± 0.95 | > 50 | 3.6 | > 50 | 13.2 ± 0.58 | – |
| – | CCCCc1nnc([C@]23CC[C@@H](C)[C@H](C)C2C2=CCC4[C@@]5(C)Cc6cc7ccccc7nc6C(C)(C)C5CC[C@@]4(C)[C@]2(C)CC3)s1 (stereo partly drawn) [Compound 6e, N-2-[ursa-12-en-(2,3)-quinoline-28-oyl]-5-butyl-1,3,4-thiadiazole] | > 50 | – | – | > 50 | > 50 | – |

Source: paper PMC6522941, “Design, synthesis, and anticancer evaluation of novel quinoline derivatives of ursolic acid with hydrazide, oxadiazole, and thiadiazole moieties as potent MEK inhibitors” (Journal of Enzyme Inhibition and Medicinal Chemistry, 2019)
